Measured values taken from ChEMBL document CHEMBL2346648, “A series of thiazole derivatives bearing thiazolidin-4-one as non-competitive ADAMTS-5 (aggrecanase-2) inhibitors” (Bioorg Med Chem Lett, 2013).

What was measured:
[1] = molecular target: T1, A disintegrin and metalloproteinase with thrombospondin motifs 13 (Homo sapiens, UniProt Q76LX8); test: Inhibition of ADAMTS-13 (unknown origin)
T1 sequence (Q76LX8 whole entry): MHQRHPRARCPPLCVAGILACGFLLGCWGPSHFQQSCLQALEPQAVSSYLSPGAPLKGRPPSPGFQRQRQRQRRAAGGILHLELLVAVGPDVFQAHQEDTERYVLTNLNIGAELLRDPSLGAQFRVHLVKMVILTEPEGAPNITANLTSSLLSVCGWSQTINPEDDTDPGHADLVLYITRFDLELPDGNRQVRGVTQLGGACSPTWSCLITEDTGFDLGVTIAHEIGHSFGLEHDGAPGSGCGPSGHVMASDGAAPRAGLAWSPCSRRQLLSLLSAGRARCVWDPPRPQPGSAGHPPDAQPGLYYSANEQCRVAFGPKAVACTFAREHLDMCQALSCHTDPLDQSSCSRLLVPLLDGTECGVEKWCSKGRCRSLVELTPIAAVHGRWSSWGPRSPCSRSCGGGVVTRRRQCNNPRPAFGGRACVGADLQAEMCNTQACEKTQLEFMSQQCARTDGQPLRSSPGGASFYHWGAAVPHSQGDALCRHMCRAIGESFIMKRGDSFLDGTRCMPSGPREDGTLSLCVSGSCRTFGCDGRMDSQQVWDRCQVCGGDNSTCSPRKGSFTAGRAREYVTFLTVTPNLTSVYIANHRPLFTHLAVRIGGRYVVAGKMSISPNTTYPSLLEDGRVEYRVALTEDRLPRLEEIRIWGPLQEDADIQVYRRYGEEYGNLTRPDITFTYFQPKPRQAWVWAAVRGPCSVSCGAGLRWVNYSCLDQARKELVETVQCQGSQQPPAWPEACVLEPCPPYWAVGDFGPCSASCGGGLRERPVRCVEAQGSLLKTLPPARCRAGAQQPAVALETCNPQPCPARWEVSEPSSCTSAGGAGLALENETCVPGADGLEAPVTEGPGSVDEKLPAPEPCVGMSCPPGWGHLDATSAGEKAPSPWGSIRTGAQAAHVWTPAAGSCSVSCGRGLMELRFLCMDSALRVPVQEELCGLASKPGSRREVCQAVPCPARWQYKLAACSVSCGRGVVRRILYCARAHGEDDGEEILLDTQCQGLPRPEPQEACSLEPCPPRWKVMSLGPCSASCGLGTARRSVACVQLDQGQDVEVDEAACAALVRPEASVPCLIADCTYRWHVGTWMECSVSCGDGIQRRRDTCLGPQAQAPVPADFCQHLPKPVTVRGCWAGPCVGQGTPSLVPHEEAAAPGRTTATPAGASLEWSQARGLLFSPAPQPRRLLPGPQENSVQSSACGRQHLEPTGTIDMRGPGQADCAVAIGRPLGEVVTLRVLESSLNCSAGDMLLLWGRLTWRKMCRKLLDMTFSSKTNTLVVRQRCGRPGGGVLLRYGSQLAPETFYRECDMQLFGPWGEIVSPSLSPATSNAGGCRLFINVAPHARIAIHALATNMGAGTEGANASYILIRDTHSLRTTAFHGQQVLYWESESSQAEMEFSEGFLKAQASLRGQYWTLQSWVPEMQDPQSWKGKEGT

[2] = molecular target: T2, A disintegrin and metalloproteinase with thrombospondin motifs 5 (Bos taurus) (UniProt Q9TT92); test: Ex vivo inhibition of ADAMTS-5-mediated aggrecan degradation in IL-1-stimulated bovine cartilage explant at 30 uM
T2 sequence (whole entry): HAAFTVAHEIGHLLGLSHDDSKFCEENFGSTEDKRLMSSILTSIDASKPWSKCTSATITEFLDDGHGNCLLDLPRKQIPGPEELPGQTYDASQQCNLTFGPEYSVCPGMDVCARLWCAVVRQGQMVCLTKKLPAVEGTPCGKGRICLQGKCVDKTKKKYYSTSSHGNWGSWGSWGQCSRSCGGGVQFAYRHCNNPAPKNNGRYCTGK

[3] = molecular target: 72 kDa type IV collagenase (Homo sapiens, UniProt P08253); test: Inhibition of MMP2 (unknown origin) by FRET method
Chain of 72 kDa type IV collagenase (P08253 whole entry): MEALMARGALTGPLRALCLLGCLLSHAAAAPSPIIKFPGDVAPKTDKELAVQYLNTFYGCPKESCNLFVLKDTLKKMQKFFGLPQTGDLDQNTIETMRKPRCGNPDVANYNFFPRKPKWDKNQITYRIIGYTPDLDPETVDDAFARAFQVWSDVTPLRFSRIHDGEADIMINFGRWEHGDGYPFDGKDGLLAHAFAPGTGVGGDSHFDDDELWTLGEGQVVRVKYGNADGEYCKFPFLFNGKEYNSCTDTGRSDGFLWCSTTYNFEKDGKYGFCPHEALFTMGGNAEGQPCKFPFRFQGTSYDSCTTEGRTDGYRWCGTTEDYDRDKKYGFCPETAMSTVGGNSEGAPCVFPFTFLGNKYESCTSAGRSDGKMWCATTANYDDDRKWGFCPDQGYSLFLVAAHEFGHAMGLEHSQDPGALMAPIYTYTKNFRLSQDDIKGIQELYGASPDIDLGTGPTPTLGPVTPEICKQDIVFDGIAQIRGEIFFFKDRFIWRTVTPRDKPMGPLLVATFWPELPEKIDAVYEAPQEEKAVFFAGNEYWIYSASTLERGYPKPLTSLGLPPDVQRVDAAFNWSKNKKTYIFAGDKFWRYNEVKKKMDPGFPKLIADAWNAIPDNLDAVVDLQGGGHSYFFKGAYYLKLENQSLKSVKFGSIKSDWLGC

[4] = Apparent permeability from apical to basolateral side of MDCK cells by transwell assay; assay type: ADME, cell-based, Canis lupus familiaris; conditions: dog
[5] = molecular target: T3, A disintegrin and metalloproteinase with thrombospondin motifs 5 (Bos taurus, UniProt Q9TT92); test: Ex vivo inhibition of ADAMTS-5-mediated aggrecan degradation in IL-1-stimulated bovine cartilage explant
T3 sequence (Q9TT92 whole entry): T2 sequence (whole entry)

[6] = molecular target: Matrix metalloproteinase-14 (Homo sapiens, UniProt P50281); test: Inhibition of MMP14 (unknown origin) by FRET method
[7] = molecular target: T4, A disintegrin and metalloproteinase with thrombospondin motifs 5 (Homo sapiens, UniProt Q9UNA0); test: Inhibition of human His-tagged ADAMTS-5 using QF-peptide as substrate by FRET method
T4 sequence (Q9UNA0 whole entry): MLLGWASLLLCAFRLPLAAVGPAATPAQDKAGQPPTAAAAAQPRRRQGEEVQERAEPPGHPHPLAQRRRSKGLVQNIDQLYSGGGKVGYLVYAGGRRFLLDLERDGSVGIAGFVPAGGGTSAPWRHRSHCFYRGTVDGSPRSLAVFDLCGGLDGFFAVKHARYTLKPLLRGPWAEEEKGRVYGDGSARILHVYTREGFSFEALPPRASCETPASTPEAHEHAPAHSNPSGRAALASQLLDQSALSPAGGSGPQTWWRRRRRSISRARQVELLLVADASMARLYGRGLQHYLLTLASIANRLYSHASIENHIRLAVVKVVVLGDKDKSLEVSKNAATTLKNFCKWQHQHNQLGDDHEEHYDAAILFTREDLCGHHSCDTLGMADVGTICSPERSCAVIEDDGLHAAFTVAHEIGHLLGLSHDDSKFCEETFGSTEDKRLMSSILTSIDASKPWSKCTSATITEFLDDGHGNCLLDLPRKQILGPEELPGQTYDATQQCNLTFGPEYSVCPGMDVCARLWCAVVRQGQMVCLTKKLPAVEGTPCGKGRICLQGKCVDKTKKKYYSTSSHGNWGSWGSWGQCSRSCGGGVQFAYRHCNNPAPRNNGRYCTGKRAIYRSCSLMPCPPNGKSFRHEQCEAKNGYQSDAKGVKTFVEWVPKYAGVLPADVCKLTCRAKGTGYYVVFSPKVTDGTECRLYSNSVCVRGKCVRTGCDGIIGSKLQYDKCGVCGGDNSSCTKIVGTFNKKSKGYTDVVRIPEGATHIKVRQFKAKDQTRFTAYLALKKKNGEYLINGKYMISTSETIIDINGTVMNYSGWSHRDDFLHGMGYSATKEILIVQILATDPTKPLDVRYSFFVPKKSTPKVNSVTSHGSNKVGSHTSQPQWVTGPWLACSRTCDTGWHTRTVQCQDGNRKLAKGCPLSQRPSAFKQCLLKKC

Stromelysin-1 = Stromelysin-1 (Homo sapiens, UniProt P08254); test: Inhibition of MMP3 (unknown origin) by FRET method
Chain of Stromelysin-1 (P08254 whole entry): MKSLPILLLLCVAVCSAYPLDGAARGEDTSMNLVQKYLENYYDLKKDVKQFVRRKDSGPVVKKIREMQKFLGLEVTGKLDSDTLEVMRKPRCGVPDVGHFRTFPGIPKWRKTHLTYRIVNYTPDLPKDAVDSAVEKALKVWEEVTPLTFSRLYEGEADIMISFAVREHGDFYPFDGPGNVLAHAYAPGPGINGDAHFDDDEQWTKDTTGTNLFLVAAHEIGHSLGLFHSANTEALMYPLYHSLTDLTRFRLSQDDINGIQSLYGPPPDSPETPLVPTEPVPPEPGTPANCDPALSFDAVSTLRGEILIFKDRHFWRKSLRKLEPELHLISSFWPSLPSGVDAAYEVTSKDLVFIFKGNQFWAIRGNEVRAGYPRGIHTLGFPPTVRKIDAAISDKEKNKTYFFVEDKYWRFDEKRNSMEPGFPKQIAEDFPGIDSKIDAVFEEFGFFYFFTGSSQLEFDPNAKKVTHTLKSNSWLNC

IC50 [1]: 20 µM | inhibition [2]: 66% | IC50 [3]: > 30 µM | Papp A→B [4]: 5.55 ×10⁻⁶ cm/s | IC50 [5]: 22 µM | IC50 [6]: 24 µM | IC50 [7]: 0.23 µM | IC50 (Stromelysin-1): > 30 µM
Compound: O=C(O)CCc1sc(/C=C2\NC(=O)CS2)nc1-c1ccccn1
